Test results as given in paper PMC8231256, “Influence of N-Methylation and Conformation on Almiramide Anti-Leishmanial Activity” (Molecules, 2021).
Several values for one entry are separate records, joined by “and”; a condition that tells them apart may be missing. Identical values can stand only once. Like-named read-outs stand apart in the source and are kept apart here. Where a SMILES comes first, the peptide text is derived from it. [ ]: non-standard residue; d: D form. The star is where a group is joined. NMeF = CN[C@@H](Cc1ccccc1)C(=O)O; NMeV = CN[C@H](C(=O)O)C(C)C; Hept6ynoyl = C#CCCCCC(=O)*; NMeA = CN[C@@H](C)C(=O)O; NH(CH2)6NH2 = NCCCCCCN*

Key:
[1] = LM-1 macrophage cytotoxicity (Alamar Blue); format: cell-based, murine; conditions: for CC50 at 24 h: mouse
Description: The host cytotoxicity was evaluated by monitoring the survival rates of murine LM-1 macrophage at different concentrations of peptides 15–37 ([…]) over 24 h. […] Exceptionally, MeAla peptide amide 21 was 3.2- to 8-fold less toxic than the other peptide analogs.
The LM1- macrophages were grown in DMEM supplemented with 10% heat inactivated FBS. Cells at the concentration of 100,000 cells/mL were cultivated for 24 h in a 96-well plate (37 °C, 5% CO2). The culture medium was removed and fresh medium containing the appropriate drug and concentration was added to the cells, which were incubated for 24 h (37 °C, 5% CO2). Seven different concentrations were tested ([…]) as well as controls (without drugs). After 24 h, the culture medium was removed and replaced for fresh medium containing 10% Alamar Blue (Thermo Fisher Scientific, Waltham, MA, USA) and incubated for 2 h (37 °C, 5% CO2). Readings at 570 and 600 nm (Asys UVM340 Plate reader, Biochrom, Cambridge, UK) were taken and analyzed according to the manufacturer protocol. Survival rates at different drug concentrations and CC50 values were calculated using the Excel software.

[2] = tested on: L. infantum (MHOM/MA/67/ITMAP-263) wild-type strain (WT) promastigotes; format: cell-based, Leishmania infantum; conditions: for EC50: 72 h; for Selectivity Index: SI = CC50 (LM-1 macrophage)/EC50 Ldi WT
Description: (§1) The biological activity of peptides 15–37 was assessed against the L. infantum wild-type stain (WT), as well as mutants resistant to the common anti-leishmanial agents, such as antimony (Sb^III), amphotericin B (AmB) and miltefosine (MF): Sb2000.1, AmB1000.1 and MF200.5. Activity against Leishmania promastigotes was determined by monitoring the replication of parasites after 72 h of incubation at 25 °C in the presence of increasing concentrations of the different peptides […] and reported as EC50 values (Table 2). […] The greatest potencies were observed using analogs against the amphotericin B resistant strain (e.g., AmB1000.1).
(§2) The L. infantum (MHOM/MA/67/ITMAP-263) wild-type stain (WT), as well as the resistant mutants Sb2000.1, AmB1000.1 and MF200.5 [53, 54, 55, 56, 57, 58], resistant to antimony (Sb^III), amphotericin B (AmB) and miltefosine (MF), respectively, were grown in M199 medium at 25 °C supplemented with 10% fetal bovine serum, 5 μg/mL of haemin at pH 7.0 and 2000 μM Sb (Potassium antimonyl tartrate, Sigma-Aldrich), 200 μM of MF (Miltefosine, Cayman Chem., Ann Arbor, MI, USA) or 1 μM AmB (Amphotericin B solution, Sigma, Oakville, ON, Canada). Antileishmanial values were determined in Leishmania promastigotes by monitoring the replication of parasites after 72 h of incubation at 25 °C in the presence of increasing concentrations of the different peptides by measuring A600 using a Cytation 5 machine (BioTek, Winooski, VT, USA). EC50 values were calculated based on dose–response curves analyzed by non-linear regression with GraphPad Prism 8.4.3 software (GraphPad Software, La Jolla, CA, USA). An average of at least three independent biological replicates from independent cultures was performed for each determination.

[3] = tested on: L. infantum MF200.5 (resistant to miltefosine) promastigotes; format: cell-based, Leishmania infantum; conditions: strain resistant to 200 µM miltefosine; promastigotes, 72 h, 25 °C; 95% CI in brackets (n = 3); read-out: Ldi MF-Res EC50
Description: as §1, §2

[4] = tested on: L. infantum AmB1000.1 (resistant to amphotericin B) promastigotes; format: cell-based, Leishmania infantum; conditions: for EC50: strain resistant to 1 µM amphotericin B, promastigotes, 72 h, 25 °C, 95% CI in brackets (n = 3), read-out: Ldi AmB-Res EC50
Description: as §1, §2

[5] = tested on: L. infantum Sb2000.1 (resistant to antimony) promastigotes; format: cell-based, Leishmania infantum; conditions: strain resistant to 2 mM antimonials, 72 h, 25 °C, 95% CI in brackets (n = 3), read-out: Ldi Sb-Res EC50
Description: as §1, §2

[6] = MHOM/MA/67/ITMAP-263) wild-type strain (WT) promastigotes
[7] = LM-1 macrophages, 24 h, Alamar Blue, read-out: CC50
[8] = promastigotes, 25 °C, 95% confidence interval in brackets (n = 3), read-out: Ldi WT EC50

| SMILES | CC50 [1] | EC50 [2, 6] | Selectivity Index [2] | EC50 [3] | EC50 [4] | EC50 [5] | CC50 at 24 h [1] | CC50 at 24 h [1, 7] | EC50 [2, 8] | fold more active than nonmethylated counterpart ([4]; AmB1000.1, 17 vs 16, 35 vs 31) | therapeutic index ([4]; macrophage toxicity compared with potency against the AmB resistant Leishmania strain) |
| --- | --- | --- | --- | --- | --- | --- | --- | --- | --- | --- | --- |
| C#CCCCCC(=O)N[C@H](C(=O)N[C@H](C(=O)N[C@H](C(=O)N[C@H]1CCN([C@H](Cc2ccccc2)C(=O)NCCCCCCN)C1=O)C(C)C)C(C)C)C(C)C [R-32, HCC(CH2)4CO-Val-Val-Val-Agl-D-Phe-NH(CH2)6NH2] | 338 µM | 92.6 µM | 3.6 | 123 µM | 118 µM | 111 µM |  |  |  |  |  |
| C#CCCCCC(=O)N[C@H](C(=O)N(C)[C@H](C(=O)N[C@H](C(=O)N[C@@H](C)C(=O)N[C@@H](Cc1ccccc1)C(=O)NCCCCCCN)C(C)C)C(C)C)C(C)C [compound 19, HCC(CH2)4CO-Val-Val(Me)-Val-Ala-Phe-NH(CH2)6NH2] (Hept6ynoyl-V[NMeV]VAF-{NH(CH2)6NH2}) |  | 81.2 µM | 3.9 | 89.2 µM | 70.3 µM | 78.9 µM | 316 µM |  |  |  |  |
| C#CCCCCC(=O)N(C)[C@H](C(=O)N(C)[C@H](C(=O)N(C)[C@H](C(=O)N(C)[C@@H](C)C(=O)N(C)[C@@H](Cc1ccccc1)C(=O)O)C(C)C)C(C)C)C(C)C [peptide 12, HCC(CH2)4CO-Val(Me)-Val(Me)-Val(Me)-Ala(Me)-Phe(Me)-OH] (Hept6ynoyl-[NMeV][NMeV][NMeV][NMeA][NMeF]-OH) |  |  | 4.1 | 75.6 µM | 79.6 µM | 70.7 µM |  | 281 µM | 68.3 µM |  |  |
| C#CCCCCC(=O)N[C@H](C(=O)N[C@H](C(=O)N[C@H](C(=O)N[C@@H](C)C(=O)N[C@@H](Cc1ccccc1)C(=O)O)C(C)C)C(C)C)C(C)C [peptide 15, HCC(CH2)4CO-Val-Val-Val-Ala-Phe-OH] (Hept6ynoyl-VVVAF-OH) |  | 44.7 µM | 7.0 | 50.8 µM | 46.4 µM | 60.3 µM | 316 µM |  |  |  |  |
| C#CCCCCC(=O)N[C@H](C(=O)N[C@H](C(=O)N[C@H](C(=O)N[C@@H](C)C(=O)N[C@@H](Cc1ccccc1)C(=O)NCCCCCCN)C(C)C)C(C)C)C(C)C [peptide 16, HCC(CH2)4CO-Val-Val-Val-Ala-Phe-NH(CH2)6NH2] (Hept6ynoyl-VVVAF-{NH(CH2)6NH2}) |  | 23.4 µM | 19.2 and 19.0 | 18.1 µM | 20.8 µM | 30.3 µM | 446 µM |  |  |  |  |
| C#CCCCCC(=O)N(C)[C@H](C(=O)N(C)[C@H](C(=O)N(C)[C@H](C(=O)N(C)[C@@H](C)C(=O)N(C)[C@@H](Cc1ccccc1)C(=O)NCCCCCCN)C(C)C)C(C)C)C(C)C [peptide 17, HCC(CH2)4CO-Val(Me)-Val(Me)-Val(Me)-Ala(Me)-Phe(Me)-NH(CH2)6NH2] (Hept6ynoyl-[NMeV][NMeV][NMeV][NMeA][NMeF]-{NH(CH2)6NH2}) |  |  | 6.9 | 25.5 µM | 5.6 µM | 60.2 µM |  | 338 µM | 48.4 µM | 4 fold |  |
| C#CCCCCC(=O)N(C)[C@H](C(=O)N[C@H](C(=O)N[C@H](C(=O)N[C@@H](C)C(=O)N[C@@H](Cc1ccccc1)C(=O)NCCCCCCN)C(C)C)C(C)C)C(C)C [peptide 18, HCC(CH2)4CO-Val(Me)-Val-Val-Ala-Phe-NH(CH2)6NH2] (Hept6ynoyl-[NMeV]VVAF-{NH(CH2)6NH2}) |  | 36.7 µM | 4.8 | 12.1 µM | 5.03 µM | 39.6 µM | 177 µM |  |  |  | 36 |
| C#CCCCCC(=O)N[C@H](C(=O)N[C@H](C(=O)N(C)[C@H](C(=O)N[C@@H](C)C(=O)N[C@@H](Cc1ccccc1)C(=O)NCCCCCCN)C(C)C)C(C)C)C(C)C [peptide 20, HCC(CH2)4CO-Val-Val-Val(Me)-Ala-Phe-NH(CH2)6NH2] (Hept6ynoyl-VV[NMeV]AF-{NH(CH2)6NH2}) |  | 53.9 µM | 5.2 | 60.6 µM | 57.2 µM | 40.2 µM | 281 µM |  |  |  |  |
| C#CCCCCC(=O)N[C@H](C(=O)N[C@H](C(=O)N[C@H](C(=O)N(C)[C@@H](C)C(=O)N[C@@H](Cc1ccccc1)C(=O)NCCCCCCN)C(C)C)C(C)C)C(C)C [peptide 21, HCC(CH2)4CO-Val-Val-Val-Ala(Me)-Phe-NH(CH2)6NH2] (Hept6ynoyl-VVV[NMeA]F-{NH(CH2)6NH2}) |  | 75.8 µM | 19.1 and 18.9 | 63.5 µM | 65.7 µM | 79.8 µM | 1440 µM |  |  |  |  |
| C#CCCCCC(=O)N[C@H](C(=O)N[C@H](C(=O)N[C@H](C(=O)N[C@@H](C)C(=O)N(C)[C@@H](Cc1ccccc1)C(=O)NCCCCCCN)C(C)C)C(C)C)C(C)C [peptide 22, HCC(CH2)4CO-Val-Val-Val-Ala-Phe(Me)-NH(CH2)6NH2] (Hept6ynoyl-VVVA[NMeF]-{NH(CH2)6NH2}) |  | 29 µM | 15.3 | 27.8 µM | 25.9 µM | 25 µM | 446 µM |  |  |  |  |
| C#CCCCCC(=O)N[C@H]1CCN([C@H](C(=O)N[C@H](C(=O)N[C@@H](C)C(=O)N[C@@H](Cc2ccccc2)C(=O)O)C(C)C)C(C)C)C1=O [peptide 23, HCC(CH2)4CO-Agl-Val-Val-Ala-Phe-OH] |  | 225 µM | 1.61 | 232 µM | 212 µM | 241 µM | 363 µM |  |  |  |  |
| C#CCCCCC(=O)N[C@H](C(=O)N[C@H]1CCN([C@H](C(=O)N[C@@H](C)C(=O)N[C@@H](Cc2ccccc2)C(=O)O)C(C)C)C1=O)C(C)C [peptide 24, HCC(CH2)4CO-Val-Agl-Val-Ala-Phe-OH] |  | 248 µM | 1.6 | 238 µM | 261 µM | 251 µM | 398 µM |  |  |  |  |
| C#CCCCCC(=O)N(C)[C@H](C(=O)N(C)[C@H]1CCN([C@H](C(=O)N(C)[C@@H](C)C(=O)N(C)[C@@H](Cc2ccccc2)C(=O)NCCCCCCN)C(C)C)C1=O)C(C)C [peptide 34, HCC(CH2)4CO-Val(Me)-Agl(Me)-Val-Ala(Me)-Phe(Me)-NH(CH2)6NH2] |  | 33.2 µM | 12.0 | 23.1 µM | 24.8 µM |  | 398 µM |  |  |  |  |
